13 compounds from patent US11224601B1, “Compounds that inhibits MCL-1 protein” (priority 2017, dated 2022) can be followed below.

Assay [1] has as its system OPM-2 Luc cells. Nature of the assay: Tumor Pharmacodynamics (PD) model. It counts as in vivo. To be noted: dosed orally to female athymic nude mice inoculated with OPM-2 Luc cells; compared with Reference Compound 1. The text has this:
Tumor Pharmacodynamics (PD)
FIGS. 1-7 illustrate the PD results of the cited Examples. The Reference Compound 1, an internal Amgen MC1-1 inhibitor compound made by one of the general schemes outlined in U.S. Pat. No. 9,562,061, herein incorporated by reference, is (1S,3′R,6′R,7′S,8′E,12′R)-6-chloro-12′-ethyl-7′-methoxy-3,4-dihydro-2H,15′H-spiro[naphthalene-1,22′-[20]oxa[13]thia[1,14]diazatetracyclo[14.7.2.0˜3,6˜.0˜19,24˜]pentacosa[8,16,18,24]tetraen]-15′-one 13′,13′-dioxide

The subject of assay [2] is OPM-2 human multiple myeloma cell line. Description: Cell Viability Assay (OPM-2 10 FBS), CellTiter-Glo. It counts as cell-based. The essentials:
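OPM-2 myeloma cells seeded at 3000 cells/well in RPMI 1640 with 10% FBS and exposed to serially diluted compounds for 16 h at 37° C., 5% CO2.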
Background: In ATP-based viability assays light output follows the ATP content of the culture.

Assay [3] deals with recombinant human Mcl-1 (Mcl-1/Bim interaction) (Homo sapiens (Human), UniProt Q07820). Nature of the assay: biochemical. It counts as binding. To be noted: cell free Mcl-1:Bim TR-FRET. For orientation: Time-resolved FRET reads energy transfer from a long-lived donor to a nearby acceptor.
Description: Cell free Mcl-1:Bim Affinity Assay (Mcl-1 HTRF)
The inhibition of the Mcl-1/Bim interaction was measured using a time-resolved fluorescence resonance energy transfer (TR-FRET) assay. The recombinant human Mcl-1 (C-terminally 6×His tagged Mcl-1 containing residues 171-327) was generated at Amgen Inc (Thousand Oaks, Calif.). A biotinylated peptide derived from human Bim (residues 51-76) was purchased from CPC Scientific (San Jose, Calif.). The TR-FRET assay was conducted in a 384-well white OptiPlate™ (PerkinElmer, Waltham, Mass.) in a total volume of 40 μL. The reaction mixture contained 0.1 nM Mcl-1(171-327), 0.05 nM biotin-Bim(51-76), 0.05 nM LANCE® Eu-W1024 Anti-6×His (PerkinElmer), 0.072 nM Streptavidin-Xlent (Cisbio, Bedford, Mass.), and serially diluted test compounds in the binding buffer of 20 mM Hepes, pH 7.5, 150 mM NaCl, 0.016 mM Brij® 35, and 1 mM dithiothreitol. Test compounds were pre-incubated with Mcl-1(171-327) and biotin-Bim (51-76) for 60 min before addition of the detection mixture (LANCE® Eu-W1024 Anti-6×His and Streptavidin-Xlent). The reaction plates were further incubated overnight and then were read on an Envision® multimode reader (PerkinElmer). Fluorescence signals were measured at 620 nm (40-nm bandwidth) and 665 nm (7.5-nm bandwidth) with a 60 μs delay after excitation at 320 nm (75-nm bandwidth). The signal ratio at 665/620 nm corresponded to the Mcl-1/Bim interaction and was used in all data analyses. The IC50 values of test compounds were determined from duplicate data by analyzing competition curves using a four-parameter sigmoidal model in GraphPad Prism (GraphPad Software, San Diego, Calif.) or in Genedata Screener® (Genedata, Basel, Switzerland).
[4] abbreviates: Homo sapiens, OPM-2, 16 h, read-out: OPM-2 10% FBS IC50 IP (μM), OPM-2 cells, 10% FBS, 16 h, CellTiter-Glo.
[5] abbreviates: Homo sapiens, OPM-2, 16 h, read-out: OPM-2 10% FBS IC50 IP, OPM-2 cells, 10% FBS, 16 h, CellTiter-Glo.

A word on the IC50: it is the concentration needed to halve the response being measured.

Where two headings read alike, the source gives them in different places.

recombinant human Mcl-1 (Mcl-1/Bim interaction), sequence (Q07820 171-327): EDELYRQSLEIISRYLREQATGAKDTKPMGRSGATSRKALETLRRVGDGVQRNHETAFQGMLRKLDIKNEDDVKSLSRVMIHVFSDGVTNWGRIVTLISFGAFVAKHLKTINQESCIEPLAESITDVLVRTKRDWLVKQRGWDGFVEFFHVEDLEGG

`CCO[C@]1(CN2CCN3CCOC[C@@H]3C2)/C=C/C[C@H](C)[C@@H](C)S(=O)(=O)NC(=O)c2ccc3c(c2)N(C[C@@H]2CC[C@H]21)C[C@@]1(CCCc2cc(Cl)ccc21)CO3` [Example 1, (1S,3′R,6′R,7′R,8′E,11′S,12′R)-6-chloro-7′-ethoxy-7′-((9aS)-hexahydropyrazino[2,1-c][1,4]oxazin-8(1H)-ylmethyl)-11′,12′-dimethyl-3,4-dihydro-2H,15′H-spiro[naphthalene-1,22′-[20]oxa[13]thia[1,14]diazatetracyclo[14.7.2.0˜3,6˜.0˜19,24˜]pentacosa[8,16,18,24]tetraen]-15′-one 13′,13′-dioxide]: the “in vivo efficacy in a tumor PD model relative to Reference Compound 1” value in assay [1] was “superior in vivo efficacy”. In assay [2] (setting [4]), the IC50 was determined as 0.085 µM.
`C[C@@H]1[C@@H](C)C/C=C/[C@](O)(CN2CCN3CCOC[C@@H]3C2)[C@@H]2CC[C@H]2CN2C[C@@]3(CCCc4cc(Cl)ccc43)COc3ccc(cc32)C(=O)NS1(=O)=O` [Example 213, (1S,3′R,6′R,7′R,8′E,11′S,12′R)-6-chloro-7′-((9aS)-hexahydropyrazino[2,1-c][1,4]oxazin-8(1H)-ylmethyl)-7′-hydroxy-11′,12′-dimethyl-3,4-dihydro-2H,15′H-spiro[naphthalene-1,22′-[20]oxa[13]thia[1,14]diazatetracyclo[14.7.2.0˜3,6˜.0˜19,24˜]pentacosa[8,16,18,24]tetraen]-15′-one 13′,13′-dioxide]: the results for the IC50 in assay [3] (read-out: Mcl-1 HTRF IC50) and in assay [2] (setting [4]) were 0.239 nM and 0.4 µM, respectively.
Turning to `CC(C)CO[C@@]1(CN2CCN(C3COC3)CC2)/C=C/C[C@H](C)[C@@H](C)S(=O)(=O)NC(=O)c2ccc3c(c2)N(C[C@@H]2CC[C@H]21)C[C@@]1(CCCc2cc(Cl)ccc21)CO3` [Example 348, (1S,3′R,6′R,7′S,8′E,11′S,12′R)-6-chloro-11′,12′-dimethyl-7′-(2-methylpropoxy)-7′-((4-(3-oxetanyl)-1-piperazinyl)methyl)-3,4-dihydro-2H,15′H-spiro[naphthalene-1,22′-[20]oxa[13]thia[1,14]diazatetracyclo[14.7.2.0˜3,6˜.0˜19,24˜]pentacosa[8,16,18,24]tetraen]-15′-one 13′,13′-dioxide], the IC50 in assay [3] (read-out: Mcl-1 HTRF IC50) was 2.62 nM; in assay [2] (setting [4]) it was 5.36 µM.
For `CO[C@]1(CN2CCN3CCCC[C@@H]3C2)/C=C/C[C@H](C)[C@@H](CCO)S(=O)(=O)NC(=O)c2ccc3c(c2)N(C[C@@H]2CC[C@H]21)C[C@@]1(CCCc2cc(Cl)ccc21)CO3` [Example 358, (1S,3′R,6′R,7′R,8′E,11′S,12′R)-6-chloro-12′-(2-hydroxyethyl)-7′-methoxy-11′-methyl-7′-((9aR)-octahydro-2H-pyrido[1,2-a]pyrazin-2-ylmethyl)-3,4-dihydro-2H,15′H-spiro[naphthalene-1,22′-[20]oxa[13]thia[1,14]diazatetracyclo[14.7.2.0˜3,6˜.0˜19,24˜]pentacosa[8,16,18,24]tetraen]-15′-one 13′,13′-dioxide] the same measures were 0.066 nM and 0.144 µM.
Consider `CO[C@]1(CN2CCN3CCCC[C@@H]3C2)/C=C/C[C@H](C)[C@@H](CCO[Si](c2ccccc2)(c2ccccc2)C(C)(C)C)S(=O)(=O)NC(=O)c2ccc3c(c2)N(C[C@@H]2CC[C@H]21)C[C@@]1(CCCc2cc(Cl)ccc21)CO3` [Example 359, (1S,3′R,6′R,7′R,8′E,11′S,12′R)-6-chloro-7′-methoxy-11′-methyl-12′-(2-(((2-methyl-2-propanyl)(diphenyl)silyl)oxy)ethyl)-7′-((9aR)-octahydro-2H-pyrido[1,2-a]pyrazin-2-ylmethyl)-3,4-dihydro-2H,15′H-spiro[naphthalene-1,22′-[20]oxa[13]thia[1,14]diazatetracyclo[14.7.2.0˜3,6˜.0˜19,24˜]pentacosa[8,16,18,24]tetraen]-15′-one 13′,13′-dioxide], for which the IC50 in assay [3] (read-out: Mcl-1 HTRF IC50) was 2.08 nM; in assay [2] (setting [4]) it was more than 33.3 µM.
`CO[C@@]1(CN2CCN3CCOC[C@@H]3C2)/C=C/C[C@H](C)[C@H]2CCN(C(=O)c3ccc4c(c3)N(C[C@@H]3CC[C@H]31)C[C@@]1(CCCc3cc(Cl)ccc31)CO4)S2(=O)=O` [Example 364, (1S,3′R,6′R,7′S,8′E,11′S,12′R)-6-chloro-7′-((9aS)-hexahydropyrazino[2,1-c][1,4]oxazin-8(1H)-ylmethyl)-7′-methoxy-11′-methyl-3,4-dihydro-2H,16′H-spiro[naphthalene-1,23′-[21]oxa[27]thia[1,15]diazapentacyclo[15.7.2.1˜12,15˜.0˜3,6˜.0˜20,25˜]heptacosa[8,17,19,25]tetraen]-16′-one 27′,27′-dioxide]: the IC50 in assay [3] (read-out: Mcl-1 HTRF IC50) is 192 nM; in assay [2] (setting [4]) it was more than 33.3 µM.
Consider `CO[C@@]1(CN2CCN3CCOC[C@@H]3C2)/C=C/C[C@H](C)[C@@H](CCCl)S(=O)(=O)NC(=O)c2ccc3c(c2)N(C[C@@H]2CC[C@H]21)C[C@@]1(CCCc2cc(Cl)ccc21)CO3` [Example 366, (1S,3′R,6′R,7′S,8′E,11′S,12′R)-6-chloro-12′-(2-chloroethyl)-7′-((9aS)-hexahydropyrazino[2,1-c][1,4]oxazin-8(1H)-ylmethyl)-7′-methoxy-11′-methyl-3,4-dihydro-2H,15′H-spiro[naphthalene-1,22′-[20]oxa[13]thia[1,14]diazatetracyclo[14.7.2.0˜3,6˜.0˜19,24˜]pentacosa[8,16,18,24]tetraen]-15′-one 13′,13′-dioxide], for which the IC50 in assay [3] (read-out: Mcl-1 HTRF IC50) is 0.248 nM; in assay [2] (setting [4]), 0.133 µM.
Consider `CO[C@]1(CN2CCN3CCCC[C@@H]3C2)/C=C/C[C@H](C)[C@@H](CCN(C)C)S(=O)(=O)NC(=O)c2ccc3c(c2)N(C[C@@H]2CC[C@H]21)C[C@@]1(CCCc2cc(Cl)ccc21)CO3` [Example 367, (1S,3′R,6′R,7′R,8′E,11′S,12′R)-6-chloro-12′-(2-(dimethylamino)ethyl)-7′-methoxy-11′-methyl-7′-((9aR)-octahydro-2H-pyrido[1,2-a]pyrazin-2-ylmethyl)-3,4-dihydro-2H,15′H-spiro[naphthalene-1,22′-[20]oxa[13]thia[1,14]diazatetracyclo[14.7.2.0˜3,6˜.0˜19,24˜]pentacosa[8,16,18,24]tetraen]-15′-one 13′,13′-dioxide], for which the IC50 was 0.201 nM in assay [3] (read-out: Mcl-1 HTRF IC50) and 0.273 µM in assay [2] (setting [4]).
For the compound `CCO[C@]1(CN2CCN3CCOC[C@@H]3C2)CCC[C@H](C)[C@@H](CCOC)S(=O)(=O)NC(=O)c2ccc3c(c2)N(C[C@@H]2CC[C@H]21)C[C@@]1(CCCc2ccccc21)CO3` [Example 517, (1S,3′R,6′R,7′R,11′S,12′R)-7′-ethoxy-7′-((9aS)-hexahydropyrazino[2,1-c][1,4]oxazin-8(1H)-ylmethyl)-12′-(2-methoxyethyl)-11′-methyl-3,4-dihydro-2H,15′H-spiro[naphthalene-1,22′-[20]oxa[13]thia[1,14]diazatetracyclo[14.7.2.0˜3,6˜.0˜19,24˜]pentacosa[16,18,24]trien]-15′-one 13′,13′-dioxide], the IC50 in assay [3] (read-out: Mcl-1 HTRF IC50) came to 0.259 nM; in assay [2] (setting [4]) it was 0.252 µM.
In the case of `CO[C@@]1(C#CCCN2CCS(=O)(=O)CC2)/C=C/C[C@H](C)[C@@H](C)S(=O)(=O)NC(=O)c2ccc3c(c2)N(C[C@@H]2CC[C@H]21)C[C@@]1(CCCc2cc(Cl)ccc21)CO3` [Example 100456, (1S,3′R,6′R,7′S,8′E,11′S,12′R)-6-chloro-7′-(4-(1,1-dioxido-4-thiomorpholinyl)-1-butyn-1-yl)-7′-methoxy-11′,12′-dimethyl-3,4-dihydro-2H,15′H-spiro[naphthalene-1,22′-[20]oxa[13]thia[1,14]diazatetracyclo [14.7.2.0~3,6~.0~19,24~]pentacosa[8,16,18,24]tetraen]-15′-one 13′,13′-dioxide], the values for the IC50 in assay [3] (read-out: Mel-1 HTRF IC50) and in assay [2] (setting [5]) were 0.565 nM and 1.23 µM, respectively.
In the case of `CO[C@@]1(C#CCCc2ccncn2)/C=C/C[C@H](C)[C@@H](C)S(=O)(=O)NC(=O)c2ccc3c(c2)N(C[C@@H]2CC[C@H]21)C[C@@]1(CCCc2cc(Cl)ccc21)CO3` [Example 100519, (1S,3′R,6′R,7′S,8′E,11′S,12′R)-6-chloro-7′-methoxy-11′,12′-dimethyl-7′-(4-(4-pyrimidinyl)-1-butyn-1-yl)-3,4-dihydro-2H,15′H-spiro[naphthalene-1,22′-[20]oxa[13]thia[1,14]diazatetracyclo [14.7.2.0~3,6~.0~19,24~]pentacosa[8,16,18,24]tetraen]-15′-one 13′,13′-dioxide], the values for the IC50 in assay [3] (read-out: Mel-1 HTRF IC50) and in assay [2] (setting [5]) were 0.175 nM and 0.138 µM, respectively.
As to `CO[C@@]1(CC(=O)NC[C@@H](O)C(F)(F)F)/C=C/C[C@H](C)[C@@H](C)S(=O)(=O)NC(=O)c2ccc3c(c2)N(C[C@@H]2CC[C@H]21)C[C@@]1(CCCc2cc(Cl)ccc21)CO3.CO[C@@]1(CC(=O)NC[C@H](O)C(F)(F)F)/C=C/C[C@H](C)[C@@H](C)S(=O)(=O)NC(=O)c2ccc3c(c2)N(C[C@@H]2CC[C@H]21)C[C@@]1(CCCc2cc(Cl)ccc21)CO3` [Example 100563], the IC50 in assay [3] (read-out: Mel-1 HTRF IC50) stood at 0.065 nM; in assay [2] (setting [5]), 0.51 µM.
In the case of “(1S,3′R,6′R,7′R,11′S,12′R)-6-chloro-7′- hydroxy-11′,12′-dimethyl-7′-(1-methyl-4- piperidinyl)-3,4-dihydro-2H,15′H- spiro[naphthalene-1,22′- [20]oxa[13]thia[1,14]diazatetracyclo [14.7.2.0~3,6~.0~19,24~]pentacosa[16,18,24] trien]-15′-one 13′,13′-dioxide [Example 100382]”, the IC50 in assay [3] (read-out: Mel-1 HTRF IC50) came out at 0.471 nM; in assay [2] (read-out: OPM-2 10% FBS IC50 IP, OPM-2 cells, 10% FBS, 16 h, CellTiter-Glo) it was 0.312 µM.
